Source: patent US7872018B2, “Compounds and methods for kinase modulation, and indications therefor” (Plexxikon, Inc., priority 2006, dated 2011)

How the values were obtained:
Kit = target: T1, Kit (Homo sapiens, UniProt P10721); test: c-kit biochemical assay (AlphaScreen or 33P-ATP); conditions: under the test conditions employed; read-out: IC50 toward kinase Kit
T1 construct: P1332.N6 BI PTP KIT M552-K948-X COD; made in house; host or cells: E. coli BL21(DE3)RIL, co-expressed with PTP1B
Procedure: C-kit kinase was at 1 ng per sample.
The c-kit enzyme used in the above assay was either obtained from Cell Signaling Technology (Cat. #7754) or was prepared as follows: A plasmid encoding kit (DNA and encoded protein sequences shown below) was engineered using common polymerase chain reaction (PCR) methods. Complementary DNA cloned from various human tissues were purchased from Invitrogen, and these were used as substrates in the PCR reactions. Specific custom synthetic oligonucleotide primers were designed to initiate the PCR product, and also to provide the appropriate restriction enzyme cleavage sites for ligation with the plasmids. The entire sequence encoding the enzyme was made through a gene synthesis procedure, using custom synthetic oligonucleotides covering the entire coding sequence (Invitrogen, see below).

Flt1 = Flt1 (Homo sapiens, UniProt P17948); test: Flt1 kinase activity assay; assay type: biochemical; conditions: under the test conditions employed; read-out: IC50 toward kinase Flt1
Kdr = Kdr (Homo sapiens, UniProt P35968); test: Kdr kinase activity assay; assay type: biochemical; conditions: under the test conditions employed; read-out: IC50 toward kinase Kdr
HGK = HGK (Homo sapiens, UniProt O95819); test: HGK (MAP4K4) biochemical assay (AlphaScreen); conditions: under the test conditions employed; read-out: IC50 toward kinase HGK
Procedure: Substrate was 10 nM biotin-ERM (T567/T564/T558, Cell Signaling, Inc., cat#1344). MAP4K4 kinase was at 0.5 ng per sample. After incubation of the kinase reaction for 40 min at room temperature, 5 μl of donor beads and protein A acceptor beads (Perkin Elmer Life Science, cat#67606017) at final concentration 1 μg/ml in stop buffer (20 mM Tris, pH 7.4, 200 mM Nacl, 100 mM EDTA, 0.03% BSA) was added, along with Phospho-ERM Antibody (T567/T564/T558, Cell Signaling, Inc., cat#3141) at 1:1000 dilution. […] Phosphorylated substrate results in binding of the antibody which binds to protein A acceptor bead and association of the donor and acceptor beads is such that the signal correlates with kinase activity.

Fms = target: T2, Fms (Homo sapiens, UniProt P07333); test: Fms biochemical assay (AlphaScreen or 33P-ATP); conditions: under the test conditions employed; read-out: IC50 toward kinase Fms
T2 construct: purchased Upstate Biotech 14-551
From the text: Each sample was at 5% DMSO.

B-Raf = B-Raf (Homo sapiens, UniProt P15056); test: B-Raf kinase activity assay; assay type: biochemical; conditions: under the test conditions employed; read-out: IC50 toward kinase B-Raf
B-Raf V600E = B-Raf V600E (Homo sapiens, UniProt P15056, V600E); test: B-Raf V600E kinase activity assay; assay type: biochemical; conditions: under the test conditions employed; read-out: IC50 toward kinase B-Raf V600E
TrkA = target: T3, TrkA (Homo sapiens, UniProt P04629); test: TrkA biochemical assay (AlphaScreen); conditions: under the test conditions employed; read-out: IC50 toward kinase TrkA
T3 construct: purchased Upstate Biotech 14-571
Procedure: Compounds tested were dissolved in DMSO (1 μL) and added to a white 384-well plate (Costar #3705). […] Each sample was at 5% DMSO. The plate was then incubated for 40 minutes at room temperature.

Measured: IC50

HGK, sequence (O95819 whole entry): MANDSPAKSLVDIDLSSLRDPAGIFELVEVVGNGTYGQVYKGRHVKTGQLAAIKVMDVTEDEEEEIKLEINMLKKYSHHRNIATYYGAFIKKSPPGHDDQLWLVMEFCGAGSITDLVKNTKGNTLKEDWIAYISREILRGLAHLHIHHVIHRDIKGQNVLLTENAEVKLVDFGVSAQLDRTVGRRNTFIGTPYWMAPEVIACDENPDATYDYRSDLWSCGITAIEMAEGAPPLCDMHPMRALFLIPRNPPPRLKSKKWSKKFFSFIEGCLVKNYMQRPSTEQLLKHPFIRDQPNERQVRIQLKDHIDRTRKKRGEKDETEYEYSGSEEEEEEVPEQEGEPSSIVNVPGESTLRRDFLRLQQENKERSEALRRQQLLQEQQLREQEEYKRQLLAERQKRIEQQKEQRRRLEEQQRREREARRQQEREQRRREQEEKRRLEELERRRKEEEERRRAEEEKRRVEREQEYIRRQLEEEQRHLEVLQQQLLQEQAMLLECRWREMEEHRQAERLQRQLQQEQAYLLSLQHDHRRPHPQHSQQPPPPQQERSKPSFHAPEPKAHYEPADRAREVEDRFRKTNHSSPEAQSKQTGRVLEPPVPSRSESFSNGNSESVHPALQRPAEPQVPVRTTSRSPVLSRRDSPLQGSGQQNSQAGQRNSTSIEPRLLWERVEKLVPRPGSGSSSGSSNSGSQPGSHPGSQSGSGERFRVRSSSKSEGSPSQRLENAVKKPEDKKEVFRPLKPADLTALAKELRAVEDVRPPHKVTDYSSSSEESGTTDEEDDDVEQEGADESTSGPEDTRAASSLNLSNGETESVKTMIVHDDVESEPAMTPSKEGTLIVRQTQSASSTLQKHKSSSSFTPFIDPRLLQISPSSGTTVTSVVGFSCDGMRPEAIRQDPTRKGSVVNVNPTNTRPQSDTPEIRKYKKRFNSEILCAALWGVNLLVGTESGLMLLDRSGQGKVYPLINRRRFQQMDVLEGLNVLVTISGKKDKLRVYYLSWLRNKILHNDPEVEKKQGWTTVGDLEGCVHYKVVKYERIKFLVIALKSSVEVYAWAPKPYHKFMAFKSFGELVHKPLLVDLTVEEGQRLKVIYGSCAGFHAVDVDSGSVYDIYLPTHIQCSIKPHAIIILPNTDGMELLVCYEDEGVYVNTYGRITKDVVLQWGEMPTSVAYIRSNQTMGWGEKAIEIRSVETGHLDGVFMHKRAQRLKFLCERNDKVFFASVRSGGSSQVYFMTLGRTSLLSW
B-Raf, sequence (P15056 whole entry): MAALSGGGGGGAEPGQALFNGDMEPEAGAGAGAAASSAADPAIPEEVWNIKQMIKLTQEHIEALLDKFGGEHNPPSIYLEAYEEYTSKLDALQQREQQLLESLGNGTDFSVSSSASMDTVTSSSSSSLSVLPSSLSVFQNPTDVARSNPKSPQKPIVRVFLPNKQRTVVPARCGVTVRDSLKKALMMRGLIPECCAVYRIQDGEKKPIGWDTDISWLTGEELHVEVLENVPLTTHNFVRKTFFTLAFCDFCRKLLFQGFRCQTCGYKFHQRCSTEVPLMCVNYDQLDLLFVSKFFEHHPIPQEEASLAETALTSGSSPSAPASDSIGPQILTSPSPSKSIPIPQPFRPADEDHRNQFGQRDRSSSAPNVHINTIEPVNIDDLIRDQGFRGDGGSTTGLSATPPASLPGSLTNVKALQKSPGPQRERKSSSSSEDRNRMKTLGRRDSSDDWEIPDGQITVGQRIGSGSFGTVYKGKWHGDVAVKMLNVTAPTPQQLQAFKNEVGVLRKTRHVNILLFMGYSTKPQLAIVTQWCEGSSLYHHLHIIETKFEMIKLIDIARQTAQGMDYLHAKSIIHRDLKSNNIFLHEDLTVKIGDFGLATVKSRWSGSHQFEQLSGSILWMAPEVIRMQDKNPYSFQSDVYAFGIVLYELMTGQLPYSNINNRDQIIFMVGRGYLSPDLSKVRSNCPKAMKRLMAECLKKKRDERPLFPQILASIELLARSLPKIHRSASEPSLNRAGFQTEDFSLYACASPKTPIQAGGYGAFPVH
T2 sequence (P07333 20-972): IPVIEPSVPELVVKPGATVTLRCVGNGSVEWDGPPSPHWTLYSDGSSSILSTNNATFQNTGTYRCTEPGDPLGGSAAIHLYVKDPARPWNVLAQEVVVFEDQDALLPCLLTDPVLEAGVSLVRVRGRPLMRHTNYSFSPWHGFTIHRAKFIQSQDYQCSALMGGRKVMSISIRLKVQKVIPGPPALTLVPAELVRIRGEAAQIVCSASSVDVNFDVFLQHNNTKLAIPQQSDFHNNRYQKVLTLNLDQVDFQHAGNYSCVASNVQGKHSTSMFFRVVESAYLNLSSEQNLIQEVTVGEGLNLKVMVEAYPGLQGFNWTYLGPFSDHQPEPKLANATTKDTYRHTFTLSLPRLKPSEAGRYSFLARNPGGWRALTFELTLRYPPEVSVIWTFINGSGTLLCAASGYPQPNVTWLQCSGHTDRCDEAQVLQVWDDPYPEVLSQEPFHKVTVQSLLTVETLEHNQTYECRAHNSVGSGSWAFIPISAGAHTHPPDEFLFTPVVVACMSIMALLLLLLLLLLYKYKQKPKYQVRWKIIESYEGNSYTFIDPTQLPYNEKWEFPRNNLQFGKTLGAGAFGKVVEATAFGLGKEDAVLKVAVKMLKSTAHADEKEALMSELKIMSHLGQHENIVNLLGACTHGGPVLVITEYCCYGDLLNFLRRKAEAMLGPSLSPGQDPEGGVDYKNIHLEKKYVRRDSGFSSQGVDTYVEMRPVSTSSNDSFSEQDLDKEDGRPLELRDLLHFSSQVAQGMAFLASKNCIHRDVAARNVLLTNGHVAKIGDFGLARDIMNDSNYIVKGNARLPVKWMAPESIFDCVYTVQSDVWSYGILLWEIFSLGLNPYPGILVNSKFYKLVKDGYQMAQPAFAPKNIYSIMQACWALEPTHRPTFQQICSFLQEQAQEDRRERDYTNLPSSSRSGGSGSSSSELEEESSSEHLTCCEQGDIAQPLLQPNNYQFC
Kdr, sequence (P35968 20-1356): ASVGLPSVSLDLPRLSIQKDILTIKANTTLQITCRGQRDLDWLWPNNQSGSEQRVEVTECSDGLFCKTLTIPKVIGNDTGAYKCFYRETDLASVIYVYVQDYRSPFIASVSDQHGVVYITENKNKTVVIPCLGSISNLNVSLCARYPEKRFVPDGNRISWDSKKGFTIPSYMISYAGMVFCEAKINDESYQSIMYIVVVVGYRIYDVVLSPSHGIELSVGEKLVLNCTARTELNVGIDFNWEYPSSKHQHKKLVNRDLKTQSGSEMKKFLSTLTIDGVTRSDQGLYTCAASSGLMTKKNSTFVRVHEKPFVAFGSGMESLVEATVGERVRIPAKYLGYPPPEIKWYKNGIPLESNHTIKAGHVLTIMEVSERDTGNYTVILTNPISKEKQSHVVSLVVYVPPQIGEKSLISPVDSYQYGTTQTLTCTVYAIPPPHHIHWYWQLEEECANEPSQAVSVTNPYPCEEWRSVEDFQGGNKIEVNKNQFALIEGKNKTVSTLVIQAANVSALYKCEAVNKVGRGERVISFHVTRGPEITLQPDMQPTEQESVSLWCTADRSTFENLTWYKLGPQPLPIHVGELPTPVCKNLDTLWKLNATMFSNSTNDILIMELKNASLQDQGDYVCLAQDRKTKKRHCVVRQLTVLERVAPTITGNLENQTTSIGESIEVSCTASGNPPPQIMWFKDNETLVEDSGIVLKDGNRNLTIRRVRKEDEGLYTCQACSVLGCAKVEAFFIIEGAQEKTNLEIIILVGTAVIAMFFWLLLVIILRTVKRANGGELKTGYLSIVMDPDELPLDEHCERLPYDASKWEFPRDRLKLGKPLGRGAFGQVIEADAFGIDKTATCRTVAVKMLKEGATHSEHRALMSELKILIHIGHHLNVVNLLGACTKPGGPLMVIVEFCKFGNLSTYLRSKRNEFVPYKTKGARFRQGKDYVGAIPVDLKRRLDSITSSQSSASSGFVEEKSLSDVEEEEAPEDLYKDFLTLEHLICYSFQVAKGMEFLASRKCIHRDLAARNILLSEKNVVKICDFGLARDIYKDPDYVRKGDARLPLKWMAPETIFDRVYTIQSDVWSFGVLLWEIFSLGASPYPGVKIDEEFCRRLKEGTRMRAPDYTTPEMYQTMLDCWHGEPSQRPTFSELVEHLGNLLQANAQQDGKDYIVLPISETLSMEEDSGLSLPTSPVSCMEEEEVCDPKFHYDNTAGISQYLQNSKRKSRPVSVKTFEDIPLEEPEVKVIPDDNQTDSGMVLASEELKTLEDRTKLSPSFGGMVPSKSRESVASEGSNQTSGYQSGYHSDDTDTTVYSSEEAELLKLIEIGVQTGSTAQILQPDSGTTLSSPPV
T3 sequence (P04629 33-796): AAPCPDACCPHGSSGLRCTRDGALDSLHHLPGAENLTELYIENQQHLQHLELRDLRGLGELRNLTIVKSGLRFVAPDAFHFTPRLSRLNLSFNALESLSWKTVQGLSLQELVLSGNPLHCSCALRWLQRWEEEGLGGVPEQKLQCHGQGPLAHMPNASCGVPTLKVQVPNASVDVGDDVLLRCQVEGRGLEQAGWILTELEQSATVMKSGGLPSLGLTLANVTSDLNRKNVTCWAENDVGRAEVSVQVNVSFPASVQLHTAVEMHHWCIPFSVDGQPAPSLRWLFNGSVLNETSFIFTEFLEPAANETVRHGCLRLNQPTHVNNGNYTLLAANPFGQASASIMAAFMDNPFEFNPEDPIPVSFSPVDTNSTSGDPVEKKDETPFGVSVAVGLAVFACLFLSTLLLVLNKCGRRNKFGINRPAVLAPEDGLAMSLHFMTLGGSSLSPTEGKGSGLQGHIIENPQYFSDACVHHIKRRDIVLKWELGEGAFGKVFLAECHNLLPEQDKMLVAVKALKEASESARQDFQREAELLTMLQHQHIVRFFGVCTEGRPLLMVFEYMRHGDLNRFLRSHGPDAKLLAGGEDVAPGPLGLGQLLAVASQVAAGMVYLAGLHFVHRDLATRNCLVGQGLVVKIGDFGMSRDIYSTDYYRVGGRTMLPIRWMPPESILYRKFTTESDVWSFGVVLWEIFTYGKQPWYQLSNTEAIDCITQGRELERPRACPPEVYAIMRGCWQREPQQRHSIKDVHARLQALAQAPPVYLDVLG
B-Raf V600E, sequence (P15056 whole entry V600E): as the sequence (P15056 whole entry) above, with V600E counted along it

COc1cnc2[nH]cc(C(=O)c3c(F)ccc(OCC(F)(F)F)c3Cl)c2c1 [P-2149, [2-Chloro-6-fluoro-3-(2,2,2-trifluoro-ethoxy)-phenyl]-(5-methoxy-1H-pyrrolo[2,3-b]pyridin-3-yl)-methanone]
≤ 10 µM: Kit | Flt1 | Kdr | HGK | Fms

COc1cc(Cc2c[nH]c3ncccc23)ccc1OCc1ccc(Cl)cc1Cl [P-1568, 3-[4-(2,4-Dichloro-benzyloxy)-3-methoxy-benzyl]-1H-pyrrolo[2,3-b]pyridine]
≤ 10 µM: Kit | B-Raf | Fms | B-Raf V600E

Clc1ccc(COc2ccc(Cl)c(Cc3c[nH]c4ncccc34)c2Cl)cc1 [P-1768, 3-[2,6-Dichloro-3-(4-chloro-benzyloxy)-benzyl]-1H-pyrrolo[2,3-h]pyridine]
≤ 10 µM: B-Raf | Fms | B-Raf V600E

COc1cnc2[nH]cc(Cc3cc(F)c(OCc4nc5ccccc5[nH]4)cc3F)c2c1 [P-2101, 2-[2,5-Difluoro-4-(5-methoxy-1H-pyrrolo[2,3-b]pyridin-3-ylmethyl)-phenoxymethyl]-1H-benzoimidazole]
not listed: B-Raf | B-Raf V600E
≤ 10 µM: all other assays above

CS(=O)(=O)c1cnc2[nH]cc(Cc3cc(F)c(OCc4nc5ccccc5[nH]4)cc3F)c2c1 [P-2170, 2-[2,5-Difluoro-4-(5-methanesulfonyl-1H-pyrrolo[2,3-b]pyridin-3-ylmethyl)-phenoxymethyl]-1H-benzoimidazole]
≤ 10 µM: Flt1 | B-Raf | HGK | Fms | TrkA

O=C(c1c(Cl)ccc(OCc2ccc(Cl)cc2)c1Cl)c1c[nH]c2ncccc12 [P-1769, [2,6-Dichloro-3-(4-chloro-benzyloxy)-phenyl]-(1-pyrrolo[2,3-b]pyridin-3-yl)methanone]
≤ 10 µM: B-Raf | Fms | B-Raf V600E

COc1cc(Cc2c[nH]c3ncccc23)ccc1OCc1ccc(C(F)(F)F)cc1 [P-1721, 3-[3-Methoxy-4-(4-trifluoromethyl-benzyloxy)-benzyl]-1H-pyrrolo[2,3-b]pyridine]
≤ 10 µM: B-Raf | Fms | B-Raf V600E

Fc1cc(OCc2nc3ccccc3[nH]2)cc(F)c1Cc1c[nH]c2ncc(Cl)cc12 [P-2105, 2-[4-(5-Chloro-1H-pyrrolo[2,3-b]pyridin-3-ylmethyl)-3,5-difluoro-phenoxymethyl]-1H-benzoimidazole]
≤ 10 µM: Kit | Kdr | HGK | Fms

COc1cc(Cc2c[nH]c3ncccc23)cc(Cl)c1OCc1ccc(Cl)cc1 [P-1616, 3-[3-Chloro-4-(4-chloro-benzyloxy)-5-methoxy-benzyl]-1H-pyrrolo[2,3-b]pyridine]
≤ 10 µM: B-Raf | Fms

COCCOc1cnc2[nH]cc(Cc3cc(F)c(OCc4nc5ccccc5[nH]4)cc3F)c2c1 [P-2176, 2-{2,5-Difluoro-4-[5-(2-methoxy-ethoxy)-1H-pyrrolo[2,3-b]pyridin-3-ylmethyl]-phenoxymethyl}-1H-benzoimidazole]
≤ 10 µM: Kit | Kdr | HGK | Fms | TrkA

O=C(c1c(F)ccc(OCc2ccccc2)c1F)c1c[nH]c2ncc(Cl)cc12 [P-1825, (3-Benzyloxy-2,6-difluoro-phenyl)-(5-chloro-1H-pyrrolo[2,3-b]pyridin-3-yl)-methanone]
≤ 10 µM: B-Raf

O=C(c1c(F)ccc(OCc2ccccc2)c1F)c1c[nH]c2ncccc12 [P-1802, (3-Benzyloxy-2,6-difluoro-phenyl)-(1H-pyrrolo[2,3-b]pyridin-3-yl)-methanone]
≤ 10 µM: B-Raf | Fms | B-Raf V600E

COc1cc(Cc2c[nH]c3ncccc23)ccc1OCc1ccccc1 [P-1613, 3-(4-benzyloxy-3-methoxy-benzyl)-1H-pyrrolo[2,3-b]pyridine]
≤ 10 µM: Flt1 | B-Raf | Fms | B-Raf V600E

COc1cc(Cc2c[nH]c3ncc(Cl)cc23)c(Cl)cc1OCc1ccc(Cl)cc1F [P-2167, 5-Chloro-3-[2-chloro-4-(4-chloro-2-fluoro-benzyloxy)-5-methoxy-benzyl]-1H-pyrrolo[2,3-b]pyridine]
≤ 10 µM: Kit | Kdr | Fms

COCCOc1ccc(F)c(Cc2c[nH]c3ncccc23)c1Cl [P-2158, 3-[2-Chloro-6-fluoro-3-(2-methoxy-ethoxy)-benzyl]-1H-pyrrolo[2,3-b]pyridine]
≤ 10 µM: Kit | Kdr | Fms

COc1cnc2[nH]cc(Cc3cc(F)c(OCc4nc5ccccc5[nH]4)cc3Cl)c2c1 [P-2114, 2-[5-Chloro-2-fluoro-4-(5-methoxy-1H-pyrrolo[2,3-b]pyridin-3-ylmethyl)-phenoxymethyl]-1H-benzoimidazole]
≤ 10 µM: Kit | Kdr | HGK | Fms | TrkA

Cn1cc(-c2cnc3[nH]cc(Cc4c(F)ccc(OCC(F)(F)F)c4Cl)c3c2)cn1 [P-2146, 3-[2-Chloro-6-fluoro-3-(2,2,2-trifluoro-ethoxy)-benzyl]-5-(1-methyl-1H-pyrazol-4-yl)-1H-pyrrolo[2,3-b]pyridine]
not listed: B-Raf | B-Raf V600E
≤ 10 µM: all other assays above

COc1cc(Cc2c[nH]c3ncc(Cl)cc23)c(F)cc1OCc1nc2cc(S(=O)(=O)N(C)C)ccc2[nH]1 [P-2173, 2-[4-(5-Chloro-1H-pyrrolo[2,3-b]pyridin-3-ylmethyl)-5-fluoro-2-methoxy-phenoxymethyl]-1H-benzoimidazole-5-sulfonic acid dimethylamide]
≤ 10 µM: Kit | B-Raf | HGK | Fms | TrkA

Clc1ccc(COc2ccc(Cc3c[nH]c4ncccc34)cc2)cc1 [P-1462, 3-[4-(4-Chloro-benzyloxy)-benzyl]-1H-pyrrolo[2,3-b]pyridine]
≤ 10 µM: Kit | Flt1 | Fms | B-Raf V600E

COc1cc(Cc2c[nH]c3ncc(S(C)(=O)=O)cc23)c(F)cc1OCc1nc2ccccc2[nH]1 [P-2186, 2-[5-Fluoro-4-(5-methanesulfonyl-1H-pyrrolo[2,3-b]pyridin-3-ylmethyl)-2-methoxy-phenoxymethyl]-1H-benzoimidazole]
≤ 10 µM: B-Raf | HGK | Fms | B-Raf V600E | TrkA

COc1cnc2[nH]cc(Cc3ccc(OCc4ccc(Cl)cc4)c(OC)c3)c2c1 [P-1531, 3-[4-(4-Chloro-benzyloxy)-3-methoxy-benzyl]-5-methoxy-1H-pyrrolo[2,3-b]pyridine]
≤ 10 µM: Kit | Flt1 | B-Raf V600E

Fc1cc(OCc2nc3ccccc3[nH]2)c(F)cc1Cc1c[nH]c2ncc(Cl)cc12 [P-2100, 2-[4-(5-Chloro-1H-pyrrolo[2,3-b]pyridin-3-ylmethyl)-2,5-difluoro-phenoxymethyl]-1H-benzoimidazole]
not listed: Flt1
≤ 10 µM: all other assays above
